Source: patent US20110178171A1, “COMPOUNDS FOR CANCER THERAPY” (China Medical University, priority 2010, published 2011)

What was measured:
[1] = system: oral cancer cell line OECM-1; assay: MTT growth inhibition assay, OECM-1; type: cell-based; details: OECM-1, oral squamous cell carcinoma
Protocol: (§1) The results were determined by three independent experiments.
(§2) Besides, the above assay was also conducted on gastric cancer cell line NCI-N87, liver cancer cell line HepG2 and J5, lung cancer cell line A549, and oral cancer cell line OECM-1.

cleaved caspase-3 = assay: Immunohistochemical staining of xenograft tumors, cleaved caspase-3; type: in vivo; details: mice treated with 30 mg/kg (FIG. 8A)
Protocol: (§3) Mice xenograft tissue samples were fixed in 10% formalin and embedded in paraffin. After routine rehydration, antigen retrieval and blocking, the sections were incubated in the primary antibody at 4° C. overnight. The primary antibody was recognized by the biotinylated secondary antibody and visualized by vectastain avidin-biotin complex peroxidase system (ABC kit) as well as peroxidase substrate 3,3′-diaminobenzidine kit (DAB kit).
(§4) Immunohistochemical staining was conducted using a cleaved caspase-3-specific antibody. […] Similar staining was carried our using an AR-specific antibody.

PC3 cells = assay: MTT growth inhibition assay, PC3; type: cell-based, human; details: for Viability (%) PC-3: 24 h (Table 2)
Protocol: (§5) The LNCaP (androgen-sensitive), PC3 (androgen in-dependent), human prostate cancer and normal human fibroblast 3T3 were obtained from American Type Culture Collection (Manassas, Va.) were maintained with RPMI 1640 medium containing 10% FBS and […] each of penicillin and streptomycin at […] in a humidified atmosphere with 5% CO2.
(§6) The viability of the cells after treated with various chemicals was evaluated using MTT assay preformed in triplicate (Mosmann T. 1983. Rapid colorimetric assay for cellular growth and survival: application to proliferation and cytotoxicity assays”. Journal of immunological methods. 65 (1-2): 55-63). Briefly, the cancer cells (5×10^3) were incubated in 96-well plates containing […] of the culture medium. Cells were permitted to adhere for 12-18 h then washed with phosphate buffered saline (PBS). Solutions were always prepared fresh by dissolving 0.2% DMSO or K8 in culture medium and added to various kind of tumor. After 48 h of exposure, K8 containing medium was removed, washed with PBS and replaced by fresh medium. The cells in each well were then incubated in culture medium with […] MTT for 4 h. After the medium were removed, […] of DMSO and […] of glycine buffer (0.1 M glycine, 0.1 M NaCl, pH 10.5) were added to each well. Absorbance at 570 nm of the maximum was detected by a PowerWave X Microplate ELISA Reader (Bio-TeK Instruments, Winoski, Vt.). The absorbance for DMSO treated cells was considered as 100%. The results were determined by three independent experiments.
Cytotoxicities of Z-K8 (Isochaihulactone) on LNCaP (AR-dependent), and PC3 (AR-independent) tumor cell line were examined in the manner described above. […]

LNCaP cells = assay: MTT growth inhibition assay, LNCaP; details: for Viability (%) LNCaP: 24 h (Table 2); for Viability (%) / IC50: LNCaP; for Viability (%): 24 h (Table 1); for IC50: androgen-dependent prostate adenocarcinoma
Protocol: as §5, §6
Cytotoxicity of K8 (Isochaihulactone) on LNCaP cells was examined in the manner described above. The cells were treated with KS (Isochaihulactone), its Z-form, or its E-form of different concentrations ranging from 2.5 to 20 μM for 24 h.
Cytotoxicities of Z-K8 (Isochaihulactone) on LNCaP (AR-dependent), and PC3 (AR-independent) tumor cell line were examined in the manner described above. The cells were treated with the Z- or E-form K8 (Isochaihulactone) of different concentrations ranging from 0.3125 to 5 μM for 24 h.

PSA = assay: RT-PCR analysis of PSA expression; type: cell-based; details: human cancer cells, 0.5 μM to 2 μM, 24 h, dose-dependent (FIG. 3A)
Protocol: Total RNA from LNCaP, PC3, 3T3 cells was isolated as described above. cDNA was synthesized by reverse transcription of 2 μg of total RNA using oligo(dT)12-18 and SuperScript II RNA reverse transcriptase (Invitrogen). The cDNA was then used as the template to amplify the corresponding DNA fragments by PCR using two sets of synthetic oligonucleotide primers. DNA amplification was performed by PCR with the Thermocycler 2400 (PerkinElmer Life and Analytical Sciences, Boston, Mass.) using the following parameters: 35 cycles of denaturing at 95° C. for 1 min, annealing at 60° C. for 1 min, and extension at 72° C. for 2 min. Primers used for the AR PCR amplifications are (F): 5′-ATGGTGAGCAGAGTGCCCTA-3′ (SEQ ID NO: 1) (R): 5′-GTGGTGCTGGAAGCCTCTCCT-3′ (SEQ ID NO: 2) PSA (F) 5′-GGTGACCAAGTTCATGCTGTG-3′ (SEQ ID NO: 3) (R) 5′-GTGTCCTTGATCCACTTCCG-3′ (SEQ ID NO: 4) products were separated on 2% agarose gels, stained with ethidium bromide, and visualized using the Fluor Chem imaging system (Alpha InnoTech, San Leandro, Calif.), and levels of glyceraldehyde-3-phosphate dehydrogenase were used as the control.
RT-PCR was conducted to examine the effect of Z-K8 on several human cancer cells. Briefly, the cells were treated with Z-K8 (0.5 μM to 2 μM) or Luteolin (as a positive control) for 24 h. […]

[2] = system: gastric cancer cell line NCI-N87; assay: MTT growth inhibition assay, NCI-N87; type: cell-based; details: NCI-N87, gastric carcinoma
Protocol: as §1, §2

AR = assay: Immunohistochemical staining of xenograft tumors, AR; type: in vivo; details: mice treated with 30 mg/kg (FIG. 8B)
Protocol: as §3, §4

## COc1cc(/C=C2\C(=O)OCC2Cc2ccc3c(c2)OCO3)cc(OC)c1OC (racemic) [Z-K8, Racemic (Z)-β-(3′,4′-Methylenedioxybenzyl)-α-(3′,4′,5′-trimethoxybenzylidene)-γ-butyrolactone]
[1]
  IC50: 1000 nM
Cleaved caspase-3
  expression of cleaved caspase-3 in tumors (IHC) versus control: increased more
PC3 cells; 0.625 μM
  Viability (%) PC-3: 92.0%
PC3 cells; 1.25 μM
  Viability (%) PC-3: 84.5%
PC3 cells; 2.5 μM
  Viability (%) PC-3: 74.9%
PC3 cells; 5 μM
  Viability (%) PC-3: 44.9%
PC3 cells; 10 μM
  Viability (%) PC-3: 28.3%
PC3 cells; PC3, androgen-independent prostate adenocarcinoma
  IC50: 100000 nM
LNCaP cells; 0.625 μM
  Viability (%) LNCaP: 68.9%
LNCaP cells; 1.25 μM
  Viability (%) LNCaP: 43.7%
LNCaP cells; 2.5 μM
  Viability (%) LNCaP: 21.7%
  Viability (%): 33.0%
LNCaP cells; 5 μM
  Viability (%) LNCaP: 18.4%
  Viability (%): 18.7%
LNCaP cells; 10 μM
  Viability (%) LNCaP: 16.9%
  Viability (%): 17.2%
LNCaP cells; 20 μM
  Viability (%): 16.1%
LNCaP cells
  IC50: 1250 nM
LNCaP cells; listed as Z-form of K8
  IC50: 1000 nM
PSA
  PSA expression (RT-PCR): down regulated
[2]
  IC50: > 100000 nM
AR
  expression of AR in tumors (IHC) versus control: weaker
